According to patent US20130115256A1, “METHODS FOR TREATING OR PREVENTING VASCULAR GRAFT FAILURE” (priority 2010, published 2013):

Assays:
MKK4 = target: T1, MKK4 (Homo sapiens, UniProt P45985); assay: MKK4 radiometric kinase assay; assay type: biochemical; settings: MMI-0100 100 μM; remaining kinase activity
T1 construct: purchased Millipore (KinaseProfiler service)
T1 sequence (P45985 1-399): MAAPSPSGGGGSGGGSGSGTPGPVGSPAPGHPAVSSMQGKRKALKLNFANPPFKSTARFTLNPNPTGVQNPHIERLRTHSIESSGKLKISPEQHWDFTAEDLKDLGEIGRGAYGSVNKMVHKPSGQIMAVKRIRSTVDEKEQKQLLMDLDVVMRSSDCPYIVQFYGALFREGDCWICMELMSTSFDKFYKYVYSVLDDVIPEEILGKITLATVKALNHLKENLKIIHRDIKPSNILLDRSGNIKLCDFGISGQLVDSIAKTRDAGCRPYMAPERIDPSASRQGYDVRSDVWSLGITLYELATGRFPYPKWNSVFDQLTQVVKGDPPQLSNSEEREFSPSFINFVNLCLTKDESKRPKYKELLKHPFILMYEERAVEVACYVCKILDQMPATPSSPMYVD
Excerpt: (§1) A commercial radiometric assay service was used to test the specificity and potency of MMI-0100 ([…]; SEQ ID NO: 1) by measuring its half maximal inhibitory concentrations (IC50). This quantitative assay measures how much MK2 inhibitor (MMI-0100; […] (SEQ ID NO: 1)) is needed to inhibit 50% of a given biological process or component of a process (i.e., an enzyme, cell, or cell receptor). Specifically, in these assays, a positively charged substrate is phosphorylated with a radiolabeled phosphate group from an ATP if the kinase is not inhibited by an inhibitor peptide. The positively charged substrate then is attracted to a negatively charged filter membrane, quantified with a scintillation counter, and compared to a 100% activity control. ATP concentrations within 15 μM of the apparent Km for ATP were chosen since an ATP concentration near the Km may allow for the kinases to have the same relative amount of phosphorylation activity. The individual conditions for each radiometric assay are as follows.
The reaction was initiated by the addition of the MgATP. After incubation for 40 minutes at room temperature, 5 μl of the incubation mix was used to initiate the JNK radiometric assay described above.
(§2) IC50 values for inhibitor peptides were determined using Millipore's IC50 Profiler Express service. The IC50 value was estimated from a 10-point curve of one-half log dilutions. […]

MKK3 = target: T2, MKK3 (Homo sapiens, UniProt P46734); assay: MKK3 kinase activity (data not shown); assay type: biochemical; settings: concentration that inhibits >95% of MK2
T2 sequence (P46734 1-347): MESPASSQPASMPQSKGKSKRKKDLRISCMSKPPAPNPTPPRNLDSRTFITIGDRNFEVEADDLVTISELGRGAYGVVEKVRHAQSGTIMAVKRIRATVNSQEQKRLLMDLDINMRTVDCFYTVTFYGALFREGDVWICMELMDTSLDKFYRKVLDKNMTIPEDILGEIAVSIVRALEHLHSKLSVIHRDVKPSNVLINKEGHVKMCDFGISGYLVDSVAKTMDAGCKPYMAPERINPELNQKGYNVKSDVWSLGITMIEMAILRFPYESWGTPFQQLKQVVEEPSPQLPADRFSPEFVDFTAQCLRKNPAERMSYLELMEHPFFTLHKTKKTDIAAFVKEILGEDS
Excerpt: as §1, §2

[1] = system: mouse lung endothelial cells (MLEC); assay: Cell apoptosis analysis (annexin V flow cytometry); assay type: cell-based; settings: any dose; 24 hours
Method: The apoptotic effect of MMI-0100 ([…]; SEQ ID NO: 1) on mouse lung endothelial cells (MLEC) was measured at 24 hours after MMI-0100 ([…]; SEQ ID NO: 1) treatment. MLEC were removed from the tissue culture plate by trypsin, and re-suspended at a concentration of 1.0×10^6 cells/ml. Apoptotic cells were detected by AlexaFluor® 488 annexin V/Dead Cell Apoptosis Kit (Invitrogen) using flow cytometry sorting analysis.

YARAAARQARAKALARQLGVAA [MMI-0100]
Percent Activity, MKK4 (MKK4): 90% | reduction in MKK3 activity (MKK3): no reduction | EC apoptosis [1]: did not induce EC apoptosis
